This note sets out measurements from patent US20160089464A1, “MALODOR REDUCTION COMPOSITIONS” (The Procter & Gamble Company, priority 2014, published 2016).

One data set can be described thus: Comment Code material properties: vapor pressure, ClogP, probability of ingredient color instability, odor detection threshold, melamine formaldehyde PMC headspace response ratio and leakage, liquid dish neat product liquid-air partition coefficient. The conditions noted are these: Table 1 materials; each letter of the code is one property class (vapor pressure, ClogP, color instability, odor detection threshold, PMC headspace ratio, PMC leakage, liquid dish liquid-air partition coefficient). Format: physicochemical.
Consider `Cc1ncsc1CCO` [Material 1042], for which the “Comment Code” value is recorded as “CGIKL”.
For `C=C1C2CCC(C)(OCC)C1CCC2(C)C` (centres unmarked) [Material 606], the “Comment Code” value is recorded as “BDEFHJK”.
With `CCCCCC/C=C/C=O` [Material 1070], the “Comment Code” value is “ADHKL”.
Take `CC1CC2CCC3C(C2O1)C(C)(C)C(C)C3(C)C` (centres unmarked) [Material 1097]: the “Comment Code” value is given as “BDEFHJK”.
Same read-out and setting: the result for `CC1C(C)(C)C2=C(C(=O)CCC2)C1(C)C` (centres unmarked) [Material 572] reads “BDEFHIJK”.
Same read-out and setting: as for `CCC=CCCC=CCO` [Material 865], the entry is “ACEFHK”; as for `CC1=CCC(/C=C/C(C)(C)C(C)O)C1(C)C` (centres unmarked) [Material 985], “DHJK”.
On the same count and under the same terms, as for `C=C(C)C1CCC(C)C(O)C1` (centres unmarked) [Material 897], the entry is “BCEFHIJKL”; as for `CCCCCC=COC(C)=O` [Material 869], “ACEFHKL”.
With `CC(C)=CCC/C(C)=C/CO` [Material 1082], the “Comment Code” value is “BCHIK”.
For `CC(C)c1cccc(C(C)CC=O)c1` (centres unmarked) [Material 914], the “Comment Code” value was “BDHJK”.
Regarding `CC(C)=CCCC1=CCC(C)(C=O)CC1` (centres unmarked) [Material 727], the “Comment Code” value was “DFHJK”.
On the same count and under the same terms, as for `CC(C)(C)c1ccc2c(c1)OCC(=O)CO2` [Material 1085], the entry is “CEFHJ”.
Still for that read-out and setting: as for `CC1CC(C)(C)OC(Cc2ccccc2)O1` (centres unmarked) [Material 1003], the entry is “DEFHJK”; as for `C=C(C)C1CC=C(CO)CC1` (centres unmarked) [Material 948], “CHIJK”.
Regarding `CCCCCCCC(C)O` (centres unmarked) [Material 839], the “Comment Code” value is given as “BDEFGIKL”.
On to `C=CCOC(=O)COCCC(C)C` [Material 748], for which the “Comment Code” value is given as “BCEFGJK”.
Same read-out and setting: as for `CC1(C)CCC[C@@]2(C)[C@H]1CC[C@]13CO[C@](C)(CC[C@@H]12)O3` [Material 678], the entry is “DEFHJ”.
With `C=C1CCCC(C)(C)C1C=C(C)C(C)=O` (centres unmarked) [Material 913], the “Comment Code” value is “BDHIJK”.
Still for that read-out and setting: the result for `COC1CC2CC1C1CC(C=O)CC21` (centres unmarked) [Material 1026] reads “CHJK”; that for `C=CC(C)=CCC=C(C)CCC=C(C)C` [Material 710], “DEFHJK”.
The same measure, in the same setting: the result for `CC1=CCCC(C)(C)C12CCC(C)O2` (centres unmarked) [Material 1057] reads “BDFHIJKL”.
With `CCCCCCC=CC=O` [Material 837], the “Comment Code” value is reported as “ADHKL”.
On the same count and under the same terms, the result for `CCCCCCCCCC=CC=O` [Material 806] reads “BDFHJK”.
In the case of `CC1=CC2C(C(C)C)CCC(C)(O)C2CC1` (centres unmarked) [Material 1046], the “Comment Code” value is “DEFHJK”.

The same data set, now with this note: cell strings several class symbols together; each letter is one property class of L1.
As for `CC1OC(C)C2Cc3ccccc3C2O1` (centres unmarked) [Material 141], the “Comment Code” value is “CEFHJK”.
Same read-out and setting: the result for `CCCCCCCO` [Material 282] reads “ACEFGIKL”; that for `CC1(CO)CC1CC1CC2CC2(C)C1(C)C` (centres unmarked) [Material 185], “DEFHJK”; that for `CC(C)C12CCC(C)(CC1)O2` [Material 875], “ADGIJKL”.
The same measure, in the same setting: as for `CC(C=O)=Cc1ccccc1` [Material 701], the entry is “ACHIK”.
Regarding `CC=CCOCC/C=C\CC` [Material 19], the “Comment Code” value was “ADEFHJKL”.
On to `CCCCCCOC(=O)C(C)CC` (centres unmarked) [Material 273], for which the “Comment Code” value is listed as “BDEFHJKL”.
Consider `C=CC(C)(C#N)Cc1ccccc1` (centres unmarked) [Material 504], for which the “Comment Code” value is given as “BDHJK”.
On the same count and under the same terms, as for `CC1CC2CCC3C(C2O1)C(C)(C)C(C)C3(C)C` (centres unmarked) [Material 1097], the entry is “DEFHJK”; as for `CC(=O)OC(C)(C)C1CC=C(C)CC1` (centres unmarked) [Material 687], “BDHJK”.
Turning to `COC(C)(C)C1CC=C(C)CC1` (centres unmarked) [Material 20], the “Comment Code” value is “ADHIJKL”.
On to `CC1(C)CCC[C@@]2(C)[C@H]1CC[C@]13CO[C@](C)(CC[C@@H]12)O3` [Material 678], for which the “Comment Code” value is reported as “DEFHJ”.
On to `CCOCCOCCO` [Material 579], for which the “Comment Code” value was “BCEFGIK”.
Same read-out and setting: the result for `CC12CCCC(C)(CC1)C2=NO` [Material 921] reads “CFHIJK”; that for `CC(C)C12CCC(C)(O)C1C2` (centres unmarked) [Material 1019], “ADEFGIJKL”.
On the same count and under the same terms, the result for `CC(=O)OC(C)c1ccccc1` (centres unmarked) [Material 1041] reads “ACEFHIK”.
